In ChEMBL document CHEMBL1122090, “Species- or isozyme-specific enzyme inhibitors. 7. Selective effects in inhibitions of rat adenylate kinase isozymes by adenosine 5'-phosphate derivatives” (J Med Chem, 1982):

Legend:
[1] = biological target: T1, Adenylate kinase isoenzyme 1 (Rattus norvegicus) (UniProt P39069); assay: Relative Vmax value to Adenylate kinase M isoenzyme (adenylate kinase 1, AK1)
T1 sequence (whole entry): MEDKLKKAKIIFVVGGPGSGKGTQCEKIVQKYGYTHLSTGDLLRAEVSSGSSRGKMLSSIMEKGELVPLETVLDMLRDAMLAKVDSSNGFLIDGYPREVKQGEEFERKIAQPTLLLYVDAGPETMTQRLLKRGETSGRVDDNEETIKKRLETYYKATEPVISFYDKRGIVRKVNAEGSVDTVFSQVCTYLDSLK

[2] = biological target: Adenylate kinase 2, mitochondrial (Rattus norvegicus) (UniProt P29410); assay: Relative Vmax value to rat adenylate kinase II.
[3] = biological target: GTP:AMP phosphotransferase AK3, mitochondrial (Rattus norvegicus) (UniProt P29411); assay: Relative Vmax value to rat adenylate kinase III.
Chain of GTP:AMP phosphotransferase AK3, mitochondrial (Rattus norvegicus) (P29411 whole entry): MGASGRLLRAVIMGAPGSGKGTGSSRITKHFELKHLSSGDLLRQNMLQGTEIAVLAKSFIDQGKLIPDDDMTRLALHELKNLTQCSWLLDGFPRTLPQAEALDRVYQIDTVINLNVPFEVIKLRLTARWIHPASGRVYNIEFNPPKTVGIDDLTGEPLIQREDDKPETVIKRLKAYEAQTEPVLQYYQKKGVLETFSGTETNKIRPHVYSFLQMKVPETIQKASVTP

[4] = Relative inhibition index was the ratio between AK-M and AK II; assay type: functional
[5] = Relative inhibition index was the ratio between AK-M and AK III; assay type: functional
[6] = biological target: Adenylate kinase 2, mitochondrial (Rattus norvegicus) (UniProt P29410); assay: Inhibition index was the ratio between KM of AMP and Ki of AK II; assay type: functional
[7] = biological target: GTP:AMP phosphotransferase AK3, mitochondrial (Rattus norvegicus) (UniProt P29411); assay: Inhibition index was the ratio between KM of AMP and Ki of AK III; assay type: functional
[8] = biological target: T1, Adenylate kinase isoenzyme 1 (Rattus norvegicus); assay: Inhibition index was the ratio between KM of AMP and Ki of AK M; assay type: functional
[9] = biological target: GTP:AMP phosphotransferase AK3, mitochondrial (Rattus norvegicus) (UniProt P29411); assay: Relative Vmax value to Adenylate kinase III
[10] = biological target: Adenylate kinase 2, mitochondrial (Rattus norvegicus) (UniProt P29410); assay: Relative Vmax value to Adenylate kinase II
[11] = biological target: GTP:AMP phosphotransferase AK3, mitochondrial (Rattus norvegicus) (UniProt P29411); assay: Inhibitory constant of compound with Rat adenylate kinase IIl at 1.3 mM concentration in the presence of 0.65 mM AMP
[12] = biological target: T1, Adenylate kinase isoenzyme 1 (Rattus norvegicus); assay: Inhibitory constant of compound with Rat adenylate kinase M isozyme at 1.3 mM concentration in the presence of 0.65 mM AMP
[13] = tested on: CCC[C@H](OP(=O)(O)O)[C@H]1OC(n2cnc3c(N)ncnc32)[C@H](O)[C@@H]1O; assay: (§1) Concentration of compound for half-maximal velocity to Adenylate kinase II
[14] = tested on: CC[C@H](OP(=O)(O)O)[C@H]1OC(n2cnc3c(N)ncnc32)[C@H](O)[C@@H]1O; assay: as §1
[15] = tested on: CNc1nc(N)c2ncn([C@@H]3O[C@H](COP(=O)(O)O)[C@@H](O)[C@H]3O)c2n1; assay: as §1
[16] = tested on: C[C@@H]1[C@H](O)[C@@H](COP(=O)(O)O)O[C@H]1n1cnc2c(N)ncnc21; assay: as §1
[17] = tested on: Nc1nc(Cl)nc2c1ncn2[C@@H]1O[C@H](COP(=O)(O)O)[C@@H](O)[C@H]1O; assay: as §1
[18] = tested on: Nc1nc(N)c2ncn([C@@H]3O[C@H](COP(=O)(O)O)[C@@H](O)[C@H]3O)c2n1; assay: as §1
[19] = tested on: Nc1ncnc2c1ncn2[C@@H]1O[C@H](/C=C/P(=O)(O)O)[C@@H](O)[C@H]1O; assay: as §1
[20] = tested on: Nc1ncnc2c1ncn2[C@@H]1O[C@H](CCP(=O)(O)O)[C@@H](O)[C@H]1O; assay: as §1
[21] = tested on: Nc1ncnc2c1ncn2[C@@H]1O[C@H](COP(=O)(O)O)[C@@H](O)[C@H]1O; assay: as §1
[22] = tested on: C[C@H](OP(=O)(O)O)[C@H]1OC(n2cnc3c(N)ncnc32)[C@H](O)[C@@H]1O; assay: as §1; assay type: functional

Compound | Relative Vmax [1] | Relative Vmax [2] | Relative Vmax [3] | Relative inhibition index [4] | Relative inhibition index [5] | Inhibition index [6] | Inhibition index [7] | Inhibition index [8] | also measured
CC1O[C@@H]2[C@H](O1)[C@@H](COP(=O)(O)O)O[C@H]2n1cnc2c(N)ncnc21 (stereo partly specified) | 0 | 0 | 0 | 4.3 | 4.6 | 0.03 | 0.028 | 0.13 | –
Nc1ncnc2c1ncn2[C@@H]1O[C@H](CCP(=O)(O)O)[C@@H](O)[C@H]1O | 2.2 | 11.2 | 21 | 4.4 | 3.9 | 0.032 | 0.036 | 0.14 | –
CO[C@@H]1[C@H](O)[C@@H](COP(=O)(O)O)O[C@H]1n1cnc2c(N)ncnc21 | > 0 | > 0 | > 0 | 6.4 | 8.2 | 0.022 | 0.017 | 0.14 | –
Nc1ncnc2c1ncn2[C@@H]1O[C@H](/C=C/P(=O)(O)O)[C@@H](O)[C@H]1O | 2.1 | 12 | – | 5.8 | 5.1 | 0.05 | 0.057 | 0.29 | Relative Vmax [9]: 13
CCSc1nc2c(N)ncnc2n1C1O[C@H](COP(=O)(O)O)[C@@H](O)[C@H]1O (stereo partly specified) | 0 | 0 | 0 | – | – | – | – | – | –
CC[C@H](OP(=O)(O)O)[C@H]1OC(n2cnc3c(N)ncnc32)[C@H](O)[C@@H]1O (stereo partly specified) | > 0 | – | > 0 | 11.2 | – | 0.057 | – | 0.64 | Relative Vmax [10]: 2.4
Nc1ncnc2c1ncn2[C@@H]1O[C@H](COS(=O)(=O)O)[C@@H](O)[C@H]1O | 0 | 0 | 0 | – | 1.1 | – | 0.11 | 0.12 | –
CCC1O[C@@H]2[C@H](O1)[C@@H](COP(=O)(O)O)O[C@H]2n1cnc2c(N)ncnc21 (stereo partly specified) | 0 | 0 | 0 | 3 | 2.8 | 0.03 | 0.032 | 0.089 | –
C=CC[C@]1(COP(=O)(O)O)OC(n2cnc3c(N)ncnc32)[C@H](O)[C@@H]1O (stereo partly specified) | > 0 | > 0 | > 0 | 4.6 | 8.1 | 0.21 | 0.12 | 0.97 | –
CCNc1nc(N)c2ncn([C@@H]3O[C@H](COP(=O)(O)O)[C@@H](O)[C@H]3O)c2n1 | 0.4 | – | 2.7 | – | 9.3 | – | 0.015 | 0.14 | –
Nc1ncnc2c1nc(Br)n2[C@@H]1O[C@H](COP(=O)(O)O)[C@@H](O)[C@H]1O | 0 | 0 | 0 | – | – | – | – | – | –
Cn1cnc2c(ncn2[C@@H]2O[C@H](COP(=O)(O)O)[C@@H](O)[C@H]2O)c1=N | 0 | 0 | 0 | – | – | – | – | – | –
CSc1nc(N)c2ncn([C@@H]3O[C@H](COP(=O)(O)O)[C@@H](O)[C@H]3O)c2n1 | > 0 | > 0 | > 0 | – | – | – | – | – | –
C[C@H](OP(=O)(O)O)[C@H]1OC(n2cnc3c(N)ncnc32)[C@H](O)[C@@H]1O (stereo partly specified) | 1 | 7 | 8 | 4.7 | 2.8 | 0.062 | 0.1 | 0.28 | –
CCC[C@H](OP(=O)(O)O)[C@H]1OC(n2cnc3c(N)ncnc32)[C@H](O)[C@@H]1O (stereo partly specified) | > 0 | – | 0.82 | 5.6 | 4.3 | 0.073 | 0.096 | 0.41 | Relative Vmax [10]: 1.3
Nc1nc(Cl)nc2c1ncn2[C@@H]1O[C@H](COP(=O)(O)O)[C@@H](O)[C@H]1O | 0.13 | 5.8 | 7.5 | 4.2 | 4.2 | 0.05 | 0.05 | 0.21 | –

Compound | Relative Vmax [1] | Relative Vmax [2] | Relative Vmax [3] | Relative inhibition index [4] | Relative inhibition index [5] | Inhibition index [6] | Inhibition index [7] | Inhibition index [8] | also measured
CC(=O)NCCNc1ncnc2c1ncn2C1O[C@H](COP(=O)(O)O)[C@@H](O)[C@H]1O (stereo partly specified) | 0 | 0 | 0 | – | – | – | – | – | –
C[C@@H](OP(=O)(O)O)[C@H]1OC(n2cnc3c(N)ncnc32)[C@H](O)[C@@H]1O (stereo partly specified) | 0 | > 0 | > 0 | – | – | 0.0082 | 0.008 | – | –
Nc1nc(N)c2ncn([C@@H]3O[C@H](COP(=O)(O)O)[C@@H](O)[C@H]3O)c2n1 | 7.1 | 18 | 24 | 3.4 | 4 | 0.05 | 0.042 | 0.17 | –
C[C@@H]1[C@H](O)[C@@H](COP(=O)(O)O)O[C@H]1n1cnc2c(N)ncnc21 | 5.6 | 29 | 21 | 1.2 | 1.1 | 0.088 | 0.1 | 0.11 | –
Nc1ncnc2c1ncn2C(CO)OC(CO)COP(=O)(O)O (stereo unspecified) | 0 | 0 | 0 | – | – | – | – | – | –
Nc1ncnc2c1ncn2[C@@H]1O[C@H](COP(=O)(O)O)[C@@H](O)[C@H]1O | 100 | 100 | 100 | – | – | – | – | – | –
COP(=O)(O)C[C@H]1OC(n2cnc3c(N)ncnc32)[C@H](O)[C@@H]1O (stereo partly specified) | 0 | 0 | 0 | – | – | – | – | – | –
CO[C@H]1[C@@H](O)[C@H](n2cnc3c(N)ncnc32)O[C@@H]1COP(=O)(O)O | > 0 | > 0 | > 0 | 4 | 2.6 | 0.085 | 0.13 | 0.34 | –
CC1(C)O[C@@H]2[C@H](O1)[C@@H](COP(=O)(O)O)O[C@H]2n1cnc2c(N)ncnc21 | 0 | 0 | 0 | 6.6 | 5.7 | 0.038 | 0.044 | 0.25 | –
CN(C)c1nc(N)c2ncn(C3O[C@H](COP(=O)(O)O)[C@@H](O)[C@H]3O)c2n1 (stereo partly specified) | 0.04 | 0 | 0 | 5.5 | 4.5 | 0.014 | 0.017 | 0.077 | –
CNc1ncnc2c1ncn2[C@@H]1O[C@H](COP(=O)(O)O)[C@@H](O)[C@H]1O | 0 | 0 | 0 | – | – | – | – | – | inhibition [11]: 15%; inhibition [12]: 15%
CNc1nc(N)c2ncn([C@@H]3O[C@H](COP(=O)(O)O)[C@@H](O)[C@H]3O)c2n1 | 0.7 | 9.7 | 10 | 7.4 | 9.1 | 0.027 | 0.022 | 0.2 | –
CC[C@@H](OP(=O)(O)O)[C@H]1OC(n2cnc3c(N)ncnc32)[C@H](O)[C@@H]1O (stereo partly specified) | 0 | 0 | 0 | – | – | 0.015 | 0.015 | – | –
Adenylate kinase 2, mitochondrial (Rattus norvegicus) (from UniProt P29410) | – | – | – | – | – | – | – | – | Km [13]: 1100 µM; Km [14]: 1400 µM; Km [15]: 3000 µM; Km [16]: 910 µM; Km [17]: 1600 µM; Km [18]: 1600 µM; Km [19]: 1600 µM; Km [20]: 2500 µM; Km [21]: 80 µM; Km [22]: 1300 µM
CCC[C@@H](OP(=O)(O)O)[C@H]1OC(n2cnc3c(N)ncnc32)[C@H](O)[C@@H]1O (stereo partly specified) | 0 | 0 | 0 | – | – | 0.025 | 0.021 | – | –
